Series [1] deals with tubulin. As to conditions: binding to the colchicine site; read-out: IC50 (inhibits tubulin assembly into microtubules); cited from earlier work.
Series [2] deals with endothelial cell proliferation. As to conditions: inhibition of endothelial cell proliferation; cited from earlier work.
The subject of series [3] is tubulin. Kind of series: Inhibition of polymerisation of tubulin (IPT). The format is biochemical, sheep. Conditions: Table 3; inhibition of 50% of the maximum rate of assembly; tubulin 10 μM; read-out: IPT (IC50). An excerpt: Brown oil, 89%. Rf 0.3 (Cyclohexane/EtOAc, 7/3). IR (neat, cm^−1): 1609, 1593, 1564, 1428, 1205, 1157. ^1H NMR (300 MHz, CDCl3): 8.08 (d, 1H, J=8.2 Hz), 7.90 (d, 1H, J=8.4 Hz), 7.77-7.72 (ddd, 1H, J=8.2 Hz, J=6.9 Hz, J=1.3 Hz), 7.44 (ddd, 1H, J=8.3 Hz, J=7.0 Hz, J=1.0 Hz), 6.49 (d, 2H, J=2.2 Hz), 6.27 (t, 1H, J=2.2 Hz), 4.90 (q, 1H, J=6.9 Hz), 3.73 (s, 6H), 2.91 (s, 3H), 1.78 (d, 3H, J=6.9 Hz). ^13C NMR (75 MHz, CDCl3): 171.8, 163.8, 161.0 (2C), 150.7, 146.9, 133.2, 128.5, 126.6, 124.7, 121.6, 106.2 (2C), 98.0, 55.4 (2C), 43.4, 26.9, 21.1. m/z MS (APCI^+): 309 (M+H)^+. Cytotoxicity Protocol. U87, H1299 and MDA-MB231 cells are grown in Dulbecco minimal essential medium (DMEM) containing 4.5 g/L glucose and supplemented with 10% foetal calf serum and 1% glutamine. K562 and HCT116 cells are grown in RPMI 1640 medium containing 10% foetal calf serum and 1% glutamine. All the cell lines are maintained in culture at 37° C. in a humid atmosphere containing 5% CO2. The cells are inoculated in 96-well culture plates in an amount of 5000 cells per well in 50 μL of culture medium. After 24 hours of culture, the molecule to be tested, dissolved in DMSO and diluted 1/1000 in suitable culture medium, is added in each well in an amount of 50 μL per well. After 72 hours of incubation, 20 μL of resazurin is added in each well. After 1 hour of incubation, emitted fluorescence is measured at 590 nm after excitation at 560 nm using the Victor fluorescence reader (Perkin-Elmer, USA). Each concentration is tested three times and each experiment is repeated three times. Protocol for Inhibition of Polymerisation of Tubulin. When tubulin is placed at a temperature of 0° C., it is in the form of free dimers. […] The IPT of the various synthesized analogues was determined on a soluble tubulin according to the method of Shelanski^7 from sheep brains where it constitutes 20 to 25% of soluble proteins. The “antitubulin” activity is evaluated according to the method of Gaskin^8 by measuring turbidity, which is proportional to the microtubule concentration in the suspension. Turbidity is measured by absorption of the suspension at 350 nm using a spectrophotometer fitted with a cell thermostatically-controlled at 37° C. The various samples were dissolved in DMSO and incubated 10 minutes at 37° C. then 5 minutes at 0° C. The tubulin assembly and disassembly curves are obtained by absorption kinetics at 350 nm as a function of time. The IC50 determined graphically is defined as the concentration of inhibitor necessary to decrease by 50% the maximum rate of assembly of the control tubulin. In Vitro Biological Study of Compounds of the Present Invention
The most cytotoxic compounds were selected for tests of inhibition of polymerisation of tubulin. These tests were carried out under the direction of Dr J. Dubois at Gif-sur-Yvette, France. Tubulin is purified from ewe brains according to the method of Shelanski^9 by two assembly-disassembly cycles. The stock solution (15-20 mg/mL), stored at −196° C., is thawed and diluted in assembly buffer (0.1 M MES, 0.5 mM MgCl2, 1 mM EGTA, and 1 mM GTP, pH 6.6) to have a final concentration of 10 μM. Tubulin assembly is monitored by fluorescence on 96-well plates according to the method of Barron et al.^10 Inhibitor (DMSO, 1 μL) is added to the tubulin solution (10 μM, 100 μL per well) and the solution is incubated 45 minutes at room temperature. GTP (1 mM final) is then added, the solution is mixed rapidly and fluorescence (λex=350 nm, λem=440 nm) is measured on a Wallac Victor fluorometer (Perkin Elmer). The inhibition of 50% of the maximum rate of assembly (IC50) is determined in duplicate or triplicate on 10 concentrations bracketing the IC50.

The next series concerns many human cancer lines. Conditions: read-out: IC50 (cytotoxic); cited from earlier work.

The source of these data is patent US10653694B2, “Cytotoxic compounds which are inhibitors of the polymerisation of tubulin” (CENTRE NATIONAL DE LA RECHERCHE SCIENTIFIQUE (CNRS), priority 2014, dated 2020).

The term IC50 denotes the concentration needed to halve the response being measured.

Read-outs that look alike come from different tables or passages of the source.

As for `COc1ccc(/C=C\c2cc(OC)c(OC)c(OC)c2)cc1O` [CA-4, combretastatin A-4], the results for the IC50 with tubulin [1], in the series on tubulin [3] and in the series on many human cancer lines were […], […] and 1 to 2 nM, respectively. Moreover, in series [2], the “anti-vascular activity in vitro (in words)” value is given as “nanomolar”.
